We go through four molecules from patent US6432921B1, “Thrombin inhibitors” (Akzo Nobel N.V., priority 1995, dated 2002).

This test deals with T1, Human thrombin (Homo sapiens, UniProt P00734).
T1 construct: purchased Centraal Laboratorium voor Bloedtransfusie, Amsterdam, The Netherlands
Kind of test: Anti-thrombin assay: rate of hydrolysis of chromogenic substrate S-2238 by thrombin. The class given is biochemical. To be noted: TNP buffer pH 7.4, 37° C., substrate S-2238, absorbance at 405 nm; concentration causing 50% inhibition of the maximum absorbance of the blank. How it is done: Thrombin (Factor IIa) is a factor in the coagulation cascade.
The anti-thrombin activity of compounds of the present invention was assessed by measuring spectrophotometrically the rate of hydrolysis of the chromogenic substrate s-2238 exterted by thrombin. This assay for anti-thrombin activity in a buffer system was used to assess the IC50-value of a test compound.
Test medium: Tromethamine-NaCl-polyethylene glycol 6000 (TNP) buffer. Reference compound: I2581 (Kabi) Vehicle:TNP buffer. Solubilisation can be assisted with dimethylsulphoxide, methanol, ethanol, acetonitrile or tert.-butyl alcohol which are without adverse effects in concentrations up to 2.5% in the final reaction mixture.
Technique Reagents*: 1. Tromethamine-NaCl (TN) buffer. Composition of the buffer: Tromethamine(Tris) 6.057 g (50 mmol), NaCl 5.844 g (100 mmol), water to 1 l. The pH of the solution is adjusted to 7.4 at 37° C. with HCl (10 mmol·l^−1). 2. TNP buffer: Polyethylene glycol 6000 is dissolved in TN buffer to give a concentration of 3 g·l^−1. 3. S-2238 solution: One vial S-2238 (25 mg; Kabi Diagnostica, Sweden) is dissolved in 20 ml TN buffer to give a concentration of 1.25 mg·ml^−1 (2 mmol·l^−1). 4. Thrombin solution: Human thrombin (16 000 nKat·vial^−1; Centraal Laboratorium voor Bloedtransfusie, Amsterdam, The Netherlands) is dissolved in TNP buffer to give a stock solution of 835 nKat·ml^−1. Immediately before use this solution is diluted with TNP buffer to give a concentration of 3.34 nKat·ml^−1.
* All ingredients used are of analytical grade
For aqueous solutions ultrapure water (Milli-Q quality) is used.
Preparation of Test and Reference Compound Solutions
The test and reference compounds are dissolved in Milli-Q water to give stock concentrations of 10^−2 mol·l^−1. Each concentration is stepwise diluted with the vehicle to give concentrations of 10^−3, 10^−4 and 10^−5 mol·l^−1. […]
At room temperature 0.075 ml and 0.025 ml test compound or reference compound solutions or vehicle are alternately pipetted into the wells of a microtiter plate and these solutions are diluted with 0.115 ml and 0.0165 ml TNP buffer, respectively. […] Starting after 1 min of incubation, the absorbance of each sample at 405 nm is measured every 2 min. for a period of 90 min. using a kinetic microtiter plate reader (Twinreader plus, Flow Laboratories).
All data are collected in an IBM personal computer using LOTUS-MEASURE. For each compound concentration (expressed in mol·l^−1 reaction mixture) and for the blank the absorbance is plotted versus the reaction time in min.
Evaluation of responses: For each final concentration the maximum absorbance was calculated from the assay plot. […]
A word on the IC50: it is the concentration needed to halve the response being measured. Read a low IC50 as inhibition by little substance. As to `NCCCCC(NC(=O)CN(C(=O)C(N)Cc1ccccc1)C1CCCC1)C(=O)c1nccs1` [2(e), H—D-Phe-(N-cyclopentyl)-Gly-Lys-(2-thiazolyl)], 4.5 µM corresponded to half-maximal inhibition (IC50). As to `NCCCCC(NC(=O)CN(C(=O)CCc1ccccc1)C1CCCC1)C(=O)C(=O)O` (stereo not shown) [4(b), 3-Phenylpropionyl-(N-cyclopentyl)-Gly-LysΨ[COCO]—OH], 4.34 µM corresponded to half-maximal inhibition (IC50). This IC50 and that of the molecule before are within 1.5-fold of each other.

Take `NCCCC[C@H](NC(=O)[C@@H]1CCCN1C(=O)[C@@H](Cc1ccc(F)cc1)NCC(=O)O)C(=O)c1nccs1` [Example 39, HOOC—CH2—D-p-F-Phe-Pro-Lys-(2-thiazolyl)]: it took 19 µM to reach half-maximal inhibition (IC50). As to `NCCCCC(NC(=O)CN1CCCCC(NS(=O)(=O)Cc2ccccc2)C1=O)C(=O)C(=O)O` (stereo not shown) [Example 41, BzlSO2-norLeu(cyclo)Gly-LysΨ[COCO]—OH], inhibition was half-maximal at 0.135 µM (IC50).
